{"source": "patent US11241424B2", "about": "“Pharmaceutical formulations for sustained release of sebacoyl dinalbuphine ester” (LUMOSA THERAPEUTICS CO., LTD., priority 2015, dated 2022)", "key": {"[1]": {"experiment": "Phase I clinical trial of F8 formulation (safety, tolerability, pharmacokinetics)", "conditions": "for AUC0-inf / AUC0-t / Cmax / T1/2 / Tmax: plasma nalbuphine, mean", "experimental": "It was designed to evaluate safety and local tolerability and assess the pharmacokinetics of SDE following single dose intramuscular injection. The study enrolled a total of 28 healthy male subjects. All subjects were randomized to 5 cohorts. Cohort 1 (N=4) was treated with single dose Nubain® 17 mg (0.85 mL) via intramuscular injection. Cohorts 2-5 (N=6) were either treated with placebo (N=2) or treated with single dose SDE (N=4) at 75 mg (1 mL), 100 mg (1.33 mL), 125 mg (1.67 mL), and 150 mg (2 mL), respectively.\nHeparinized blood samples were obtained before and at various time points following single dose administration of study medication. […] The subsequent analysis of the data involved non-compartmental pharmacokinetics analysis, i.e., Cmax, Tmax, AUC0-t, AUC0-inf, and T1/2."}, "[2]": {"experiment": "Bioavailability study of F8 formulation and Bain (whole blood nalbuphine)", "type": "in vivo, human", "conditions": "mean, SDE 150 mg single IM as F8 formulation", "experimental": "A total of twelve subjects completed the crossover study. […] There was a minimum 5-day washout period between period I and period II. In period I, the blood samples were drawn prior to the dosing, and 0.083, 0.25, 0.5, 1, 1.5, 2, 3, 4, 6, 8, 12, and 24 hours after dosing."}, "[3]": {"test_system": "postoperative pain following hemorrhoidectomy", "experiment": "Phase 2/3 clinical study of F8 formulation", "type": "in vivo, human", "experimental": "The subjects were divided into two groups, of which Group 1 (n=103) was treated with a single dose of intramuscular SDE 150 mg (2 mL), and Group 2 (n=106) was treated with a single dose of intramuscular placebo (2 mL). All subjects were given a single dose of SDE or placebo via intramuscular injection 24±12 hours before hemorrhoid surgery. The subjects were allowed to take rescue medication and monitored for 7 days after dosing. Statistical analyses were performed on the data to compare the two groups.\nThe primary efficacy endpoint was pain assessment calculated as the area under the curve of VAS pain intensity scores through 48 hours after surgery. The secondary efficacy endpoints included pain assessment measured with VAS; time from the end of operation to the first rescue medication dosing; the consumption of oral ketorolac. Pain intensity was assessed right before the first use of PCA ketorolac, and at 1±0.1, 2±0.1, 3±0.1, 4±0.25, 8±0.5, 12±0.5, 16±0.5, 20±0.5, 24±1, 28±1, 32±2, 36±2, 40±2, 44±2, 48±2 hours after the surgery, and was assessed during Days 3-7 in the morning and evening, as well as during special events such as bowel movements.\nFor the calculation of AUC, data were imputed with the use of the windowed worst observation carried forward plus last observation carried forward method. For subjects who used rescue medication for pain relief, their VAS scores recorded within the window of ketorolac medication (6 hours, which is one half-life of ketorolac) were replaced by the “worst” observation (i.e., the highest score before taking ketorolac), hereafter called “adjusted VAS scores.”\nThe AUC0-24 and AUC0-48 of the mean adjusted VAS scores of SDE and placebo groups were calculated by using the trapezoidal method and summarized in Table 10."}, "[4]": {"experiment": "Solubility test of SDE in solvents and solvent systems (UPLC)", "type": "physicochemical", "experimental": "As used herein, the term “solubility” means the maximum amount of a solute (e.g., an active ingredient or a prodrug thereof) that can be dissolved in a given amount of a solvent at a particular temperature. Unless otherwise specified, the solubilities presented herein are at room temperature (e.g., 25-28° C.). The term “saturated concentration” refers to the concentration at which no more of a solute will dissolve in a solvent and additional amounts of solute will appear as a separate phase (e.g., as a precipitate).\nEach of the solvent systems was prepared by mixing each component with the exact volume (pi) corresponding to the w/w % listed in Table 15. About 500 μl of each of the solvent systems was prepared and was vortexed for 3 minutes or more to fully mix each component. An appropriate amount of SDE was added into 250 μl of each of the solvent systems and the resulting mixtures were sonicated for 10 minutes. If the previously added SDE was completely dissolved, an additional 4-8 mg of SDE was added into the mixture and which was then sonicated for another 10 minutes. The step of adding 4-8 mg of SDE was repeated until the mixture was saturated to show undissolved SDE precipitates. All of the mixtures were sonicated for at least 30 minutes, and then centrifuged to collect the supernatants. The supernatants were treated with acetonitrile and then subjected to UPLC analysis.\nFive groups of solvent systems containing 40% by weight of sesame oil were respectively prepared according to the method of Example 6 by using the compositions as listed in Table 17; and among them, five different alcohols (i.e., ethanol, 1-propanol, 2-propanol, 1-butanol, and tert-butanol) were used in the five groups. SDE was dissolved in each of the solvent systems till saturation by following the method of Example 6. The SDE concentrations in the supernatants collected from each of the samples (i.e. the saturated SDE concentration, or SDE solubility) were respectively determined by UPLC using the method of Example 6."}, "[5]": {"experiment": "Plasma nalbuphine after subcutaneous nalbuphine in dogs", "type": "in vivo"}, "[6]": {"conditions": "after i.v. dosing in dogs; cited from earlier work"}, "[7]": {"conditions": "SDE 75 mg single IM as F8 formulation"}, "[8]": {"conditions": "SDE 100 mg single IM as F8 formulation"}, "[9]": {"conditions": "SDE 125 mg single IM as F8 formulation"}, "[10]": {"conditions": "SDE 150 mg single IM as F8 formulation"}, "[11]": {"conditions": "48 hours post-operation, SDE 150 mg IM (F8)"}, "[12]": {"conditions": "mITT, SDE 150 mg IM (F8) 24±12 hours before hemorrhoid surgery"}, "[13]": {"conditions": "dog, plasma, subcutaneous, 0.5 mg/kg"}}, "note": "“And” between values parts separate entries of the source, which are not always exact repeats. Equal values may be shown once."}
{"smiles": "O=C(CCCCCCCCC(=O)Oc1ccc2c3c1O[C@H]1[C@@H](O)CC[C@@]4(O)[C@@H](C2)N(CC2CCC2)CC[C@]314)Oc1ccc2c3c1O[C@H]1[C@@H](O)CC[C@@]4(O)[C@@H](C2)N(CC2CCC2)CC[C@]314", "note": "[SDE, sebacoyl dinalbuphine ester]", "values": [{"measurement": "duration of action", "setting": "[1]; cohort receiving 125 mg SDE, from plasma nalbuphine above 3 ng/mL", "result": "about 6.5 days"}, {"measurement": "duration of action", "setting": "[1]; cohort receiving 150 mg SDE, from plasma nalbuphine above 3 or 1 ng/mL", "result": "6 to 12", "unit": "days"}, {"measurement": "tolerability", "setting": "[1]; escalating single IM doses of SDE up to 150 mg", "result": "well tolerated"}, {"measurement": "AUC0-inf", "setting": "[1]; [7]", "result": 692.27, "unit": "ng·h/mL"}, {"measurement": "AUC0-t", "setting": "[1]; [7]", "result": 647.84, "unit": "ng·h/mL"}, {"measurement": "Cmax", "setting": "[1]; [7]", "result": 5.45, "unit": "ng/mL"}, {"measurement": "T1/2", "setting": "[1]; [7]", "result": 55.75, "unit": "h"}, {"measurement": "Tmax", "setting": "[1]; [7]", "result": 66, "unit": "h"}, {"measurement": "AUC0-inf", "setting": "[1]; [8]", "result": 936.17, "unit": "ng·h/mL"}, {"measurement": "AUC0-t", "setting": "[1]; [8]", "result": 811.34, "unit": "ng·h/mL"}, {"measurement": "Cmax", "setting": "[1]; [8]", "result": 5.65, "unit": "ng/mL"}, {"measurement": "T1/2", "setting": "[1]; [8]", "result": 85.45, "unit": "h"}, {"measurement": "Tmax", "setting": "[1]; [8]", "result": 66, "unit": "h"}, {"measurement": "AUC0-inf", "setting": "[1]; [9]", "result": 1219.71, "unit": "ng·h/mL"}, {"measurement": "AUC0-t", "setting": "[1]; [9]", "result": 1047.45, "unit": "ng·h/mL"}, {"measurement": "Cmax", "setting": "[1]; [9]", "result": 7.31, "unit": "ng/mL"}, {"measurement": "T1/2", "setting": "[1]; [9]", "result": 89.83, "unit": "h"}, {"measurement": "Tmax", "setting": "[1]; [9]", "result": 45, "unit": "h"}, {"measurement": "AUC0-inf", "setting": "[1]; [10]", "result": 1353.16, "unit": "ng·h/mL"}, {"measurement": "AUC0-t", "setting": "[1]; [10]", "result": 1214.98, "unit": "ng·h/mL"}, {"measurement": "Cmax", "setting": "[1]; [10]", "result": 9.81, "unit": "ng/mL"}, {"measurement": "T1/2", "setting": "[1]; [10]", "result": 73.4, "unit": "h"}, {"measurement": "Tmax", "setting": "[1]; [10]", "result": 60, "unit": "h"}, {"measurement": "difference between SDE and placebo groups in number of AEs, subjects with AEs, severity and relatedness", "setting": "[1]; single IM dose 75-150 mg", "result": "No significant difference"}, {"measurement": "severity of adverse events (AEs)", "setting": "[1]; single IM dose, healthy male subjects", "result": "mild"}, {"measurement": "AUC0-inf", "setting": "[2]", "result": 1832.0, "unit": "ng·h/mL"}, {"measurement": "AUC0-t", "setting": "[2]", "result": 1687.4, "unit": "ng·h/mL"}, {"measurement": "Cmax", "setting": "[2]", "result": 15.40, "unit": "ng/mL"}, {"measurement": "MRT", "setting": "[2]", "result": 149.38, "unit": "h"}, {"measurement": "T1/2", "setting": "[2]", "result": 83.16, "unit": "h"}, {"measurement": "Tmax", "setting": "[2]", "result": 64.00, "unit": "h"}, {"measurement": "AUC0-final of adjusted VAS scores, Mean ± SD", "setting": "[3]; 0 hr to 7 days after hemorrhoid operation, mITT, SDE 150 mg IM (F8)", "result": "630.79±350.90"}, {"measurement": "consumption of oral ketorolac, Mean", "setting": "[3]; [11]", "result": 51.36, "unit": "mg"}, {"measurement": "consumption of oral ketorolac, Median", "setting": "[3]; [11]", "result": 40.00, "unit": "mg"}, {"measurement": "time for the first use of post-operational analgesic, Mean (SD)", "setting": "[3]; mITT, SDE 150 mg IM (F8)", "result": "12.57 hour and 12.57 (1.68) hour"}, {"measurement": "AUC0-24 of adjusted VAS pain intensity scores, Mean ± SD", "setting": "[3]; [12]", "result": "109.42 ± 55.04"}, {"measurement": "AUC0-48 of adjusted VAS pain intensity scores, Mean ± SD", "setting": "[3]; [12]", "result": "209.93±111.26"}, {"measurement": "adjusted VAS score compared with placebo", "setting": "[3]; throughout the 7 days after the hemorrhoid operation", "result": "lower than the placebo group"}, {"measurement": "effect of C2-C4 alcohol on the solubility of SDE (FIG. 11)", "setting": "[4]; 2.5-30% by weight of the alcohol in solvent system with 40% sesame oil", "result": "significantly increased"}, {"measurement": "solubility of SDE in the formulations", "setting": "[4]; 10% by weight of tert-Butanol replacing benzyl benzoate", "result": "about 210 mg/mL"}, {"measurement": "increase of the solubility of SDE in the solvent systems", "setting": "[4]; 10% of alkyl alcohol added", "result": "at least 30%"}, {"measurement": "Solubility of SDE in the solvent", "setting": "[4]; castor oil", "result": "about 13 mg/mL"}, {"measurement": "Solubility of SDE in the solvent", "setting": "[4]; cottonseed oil", "result": "about 6 mg/mL"}, {"measurement": "solubility of SDE in ethanol, 1-propanol, or t-butanol", "setting": "[4]; each alcohol alone", "result": "10 to 30", "unit": "mg/mL"}, {"measurement": "solubility of SDE when added to the mixture of benzyl benzoate and sesame oil", "setting": "[4]; weight ratio of benzyl benzoate to sesame oil about 1.1", "result": "about 70 mg/mL"}, {"measurement": "solubility of SDE when added to the mixture of benzyl benzoate and sesame oil", "setting": "[4]; weight ratio of benzyl benzoate to sesame oil about 1.5", "result": "about 150 mg/mL"}, {"measurement": "solubility of SDE when added to the mixture of benzyl benzoate and sesame oil", "setting": "[4]; weight ratio of benzyl benzoate to sesame oil about 2.3", "result": "about 200 mg/mL"}, {"measurement": "solubility of SDE when added to the mixture of benzyl benzoate and sesame oil", "setting": "[4]; weight ratio of benzyl benzoate to sesame oil about 9", "result": "greater than 300 mg/mL"}, {"measurement": "solubility of SDE in the formulations", "setting": "[4]; without alkyl alcohol", "result": "about 160 mg/mL"}]}
{"smiles": "Oc1ccc2c3c1O[C@H]1[C@@H](O)CC[C@@]4(O)[C@@H](C2)N(CC2CCC2)CC[C@]314", "note": "[nalbuphine]", "values": [{"measurement": "concentration at 3 h", "setting": "[5]; [13]", "result": 9.9, "unit": "ng/mL"}, {"measurement": "concentration at 4 h", "setting": "[5]; [13]", "result": 5.2, "unit": "ng/mL"}, {"measurement": "effective plasma concentration of nalbuphine for analgesia in dog", "setting": "[5]; inferred from 4 h plasma level and reported 4 h analgesia", "result": "about 5 ng/mL"}, {"measurement": "elimination half-life of nalbuphine", "setting": "[6]", "result": "about 1.2 hour"}]}
